Experimental data taken from patent US20260347364A1, “PYRAZOLO[4,3-F]QUINAZOLINE DERIVATIVES AS MODULATORS OF G12D MUTANT KRAS USEFUL FOR THE TREATMENT OF CANCER” (JAZZ PHARMACEUTICALS IRELAND LTD., priority 2023, published 2026).

Columns and labels:
[1] = molecular target: T1, KRAS WT (Homo sapiens, UniProt P01116); assay: HTRF nucleotide exchange assay, KRAS WT; type: biochemical; details: HTRF nucleotide exchange assay (NEA), class symbols
T1 construct: aa1-188 KRAS WT

[2] = molecular target: T2, KRAS G12D (Homo sapiens, UniProt P01116, G12D); assay: HTRF nucleotide exchange assay, KRAS G12D; type: biochemical; details: HTRF nucleotide exchange assay (NEA), class symbols
T2 construct: aa1-188 KRAS WT, HRAS WT, NRAS WT, or KRAS containing the G12D
T2 sequence (P01116 1-188 isoform P01116-2 G12D): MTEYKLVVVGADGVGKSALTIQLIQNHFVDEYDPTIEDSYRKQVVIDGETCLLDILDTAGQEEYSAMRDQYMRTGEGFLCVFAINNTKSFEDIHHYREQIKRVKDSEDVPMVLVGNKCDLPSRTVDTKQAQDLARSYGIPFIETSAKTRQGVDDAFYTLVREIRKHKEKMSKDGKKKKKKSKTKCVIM

T1 sequence (P01116 1-188 isoform P01116-2): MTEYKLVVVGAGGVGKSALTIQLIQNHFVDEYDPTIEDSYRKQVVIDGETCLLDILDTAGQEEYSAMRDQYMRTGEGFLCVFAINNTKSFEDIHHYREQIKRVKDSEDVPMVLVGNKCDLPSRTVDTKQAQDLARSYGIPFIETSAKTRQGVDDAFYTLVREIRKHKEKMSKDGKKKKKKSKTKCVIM

IC50 [1] [µM]	IC50 [2] [µM]	Structure (SMILES)
≤ 0.01	≤ 0.01	CCc1c(F)ccc2cc(O)cc(-c3c(F)c4nc(OC[C@@H]5CCN5)nc(N5CCOCC(C)(O)C5)c4c4cn(C)nc34)c12 (stereo partly drawn) [Example 156, 4-[4-(8-ethyl-7-fluoro-3-hydroxy-1-naphthyl)-5-fluoro-2-methyl-7-[[(2S)-azetidin-2-yl]methoxy]pyrazolo[4,3-f]quinazolin-9-yl]-6-methyl-1,4-oxazepan-6-ol]
≤ 0.01	≤ 0.01	CCc1c(F)ccc2cc(O)cc(-c3c(F)c4nc(OCC5(CN6CCC6)CC5)nc(N5CCOCC(C)(O)C5)c4c4cn(C)nc34)c12 (stereo not shown) [Example 214, 4-[7-[[1-(azetidin-1-ylmethyl)cyclopropyl]methoxy]-4-(8-ethyl-7-fluoro-3-hydroxy-1-naphthyl)-5-fluoro-2-methyl-pyrazolo[4,3-f]quinazolin-9-yl]-6-methyl-1,4-oxazepan-6-ol]
≤ 0.01	≤ 0.01	CCc1c(F)ccc2cc(O)cc(-c3c(F)c4nc(OCC5(CF)COC5)nc(N5CCOCC(C)(O)C5)c4c4cn(C)nc34)c12 (stereo not shown) [Example 163, 4-[4-(8-ethyl-7-fluoro-3-hydroxy-1-naphthyl)-5-fluoro-7-[[3-(fluoromethyl)oxetan-3-yl]methoxy]-2-methyl-pyrazolo[4,3-f]quinazolin-9-yl]-6-methyl-1,4-oxazepan-6-ol]
0.1 to 10	0.1 to 10	CCc1c(F)ccc2cc(O)cc(-c3cc4nc(OC[C@@]56CCCN5C[C@H](F)C6)nc(N5CCC(C)(O)CC5)c4c4cn(C)nc34)c12 [Example 118, 1-[4-(8-ethyl-7-fluoro-3-hydroxy-1-naphthyl)-2-methyl-7-[[(2R,8S)-2-fluoro-1,2,3,5,6,7-hexahydropyrrolizin-8-yl]methoxy]pyrazolo[4,3-f]quinazolin-9-yl]-4-methyl-piperidin-4-ol]
≤ 0.01	≤ 0.01	CCc1c(F)ccc2cc(O)cc(-c3c(F)c4nc(OCC5(CN6C[C@@H]7C[C@H]6CO7)CC5)nc(N5CCOCC(C)(O)C5)c4c4cn(C)nc34)c12 (mixture of isomers) [Example 226, 4-[4-(8-ethyl-7-fluoro-3-hydroxy-1-naphthyl)-5-fluoro-2-methyl-7-[[1-[[rac-(1S,4S)-2-oxa-5-azabicyclo[2.2.1]heptan-5-yl]methyl]cyclopropyl]methoxy]pyrazolo[4,3-f]quinazolin-9-yl]-6-methyl-1,4-oxazepan-6-ol]
≤ 0.01	≤ 0.01	CCc1c(F)ccc2cc(O)cc(-c3c(F)c4nc(OC[C@]5(C)CCCN5)nc(N5CCOCC(C)(O)C5)c4c4cn(C)nc34)c12 (stereo partly drawn) [Example 159, 4-[4-(8-ethyl-7-fluoro-3-hydroxy-1-naphthyl)-5-fluoro-2-methyl-7-[[(2S)-2-methylpyrrolidin-2-yl]methoxy]pyrazolo[4,3-f]quinazolin-9-yl]-6-methyl-1,4-oxazepan-6-ol]
0.1 to 10	0.01 to 0.1	CCc1c(F)ccc2cc(O)cc(-c3cc4nc(OC[C@@]56CCCN5C[C@H](F)C6)nc(N5CCC(C)C(O)C5)c4c4cn(C)nc34)c12 (stereo partly drawn) [Example 133, 1-[4-(8-ethyl-7-fluoro-3-hydroxy-1-naphthyl)-2-methyl-7-[[(2R,8S)-2-fluoro-1,2,3,5,6,7-hexahydropyrrolizin-8-yl]methoxy]pyrazolo[4,3-f]quinazolin-9-yl]-4-methyl-piperidin-3-ol]
0.1 to 10	0.01 to 0.1	CCc1c(F)ccc2cc(O)cc(-c3cc4nc(OC[C@@]56CCCN5C[C@H](F)C6)nc(N5CCCC(C)(OC)C5)c4c4cn(C)nc34)c12 (stereo partly drawn) [Example 131, 5-ethyl-6-fluoro-4-[9-(3-methoxy-3-methyl-1-piperidyl)-2-methyl-7-[[(2R,8S)-2-fluoro-1,2,3,5,6,7-hexahydropyrrolizin-8-yl]methoxy]pyrazolo[4,3-f]quinazolin-4-yl]naphthalen-2-ol]
